# Source: PubChem BioAssay (NCI)
#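 Exposure lasted 48 hours, with cells grown in 96-well plates and compounds tested at five concentrations. Definition used: TGI = concentration required for complete inhibition of growth.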
# Assays:
# Assay in all cases: growth of human tumour cells (NCI), 48 h
# [1] = tested on: CAKI-1 renal
# [2] = tested on: SW-620 colon
# [3] = tested on: M14 melanoma
# [4] = tested on: SNB-75 CNS
# [5] = tested on: OVCAR-8 ovarian
# [6] = tested on: A498 renal
# [7] = tested on: SK-OV-3 ovarian
# [8] = tested on: DU-145 prostate
# [9] = tested on: SR leukemia
# [10] = tested on: SF-539 CNS
# [11] = tested on: HCT-116 colon
# [12] = tested on: 786-0 renal
# [13] = tested on: A549 NSCLC
# [14] = tested on: MDA-MB-231 breast
# [15] = tested on: MOLT-4 leukemia
# [16] = tested on: ACHN renal
# [17] = tested on: OVCAR-4 ovarian
# [18] = tested on: RPMI-8226 leukemia
# [19] = tested on: UO-31 renal
# [20] = tested on: RXF 393 renal
# [21] = tested on: OVCAR-5 ovarian
# [22] = tested on: HOP-62 NSCLC
# [23] = tested on: PC-3 prostate
# [24] = tested on: KM12 colon
# [25] = tested on: HCT-15 colon
# [26] = tested on: SK-MEL-2 melanoma
# [27] = tested on: NCI-H522 lung
# [28] = tested on: U251 CNS
# [29] = tested on: NCI-H23 lung
# [30] = tested on: IGROV1 ovarian
# [31] = tested on: UACC-62 melanoma
# [32] = tested on: CCRF-CEM leukemia
# [33] = tested on: SF-268 CNS
# [34] = tested on: OVCAR-3 ovarian
# [35] = tested on: HOP-92 NSCLC
# [36] = tested on: SK-MEL-28 melanoma
# [37] = tested on: K-562 leukemia
# [38] = tested on: MALME-3M melanoma
# [39] = tested on: HT29 colon
# [40] = tested on: T-47D breast
# [41] = tested on: NCI/ADR-RES ovarian
# [42] = tested on: TK-10 renal
# [43] = tested on: NCI-H226 lung
# [44] = tested on: UACC-257 melanoma
# [45] = tested on: COLO 205 colon
# [46] = tested on: MDA-N
# [47] = tested on: SK-MEL-5 melanoma
# [48] = tested on: HS 578T breast
# [49] = tested on: SF-295 CNS
# [50] = tested on: HCC-2998 colon
# [51] = tested on: SN12C renal
# [52] = tested on: NCI-H460 lung
# [53] = tested on: BT-549 breast
# [54] = tested on: MCF7 breast
# [55] = tested on: MDA-MB-435
smiles,measurement,setting,value
O=C1CC(=O)NC(=NN2C(=O)CSC2c2ccc(Cl)c(Cl)c2)N1 (stereo not given),TGI,[1],> 100 µM
same,TGI,[2],> 100 µM
same,TGI,[3],> 100 µM
same,TGI,[4],> 100 µM
same,TGI,[5],> 100 µM
same,TGI,[6],> 100 µM
same,TGI,[7],> 100 µM
same,TGI,[8],> 100 µM
same,TGI,[9],> 100 µM
same,TGI,[10],> 100 µM
same,TGI,[11],> 100 µM
same,TGI,[12],> 100 µM
same,TGI,[13],> 100 µM
same,TGI,[14],> 100 µM
same,TGI,[15],54.3 µM
same,TGI,[16],> 100 µM
same,TGI,[17],> 100 µM
same,TGI,[18],> 100 µM
same,TGI,[19],> 100 µM
same,TGI,[20],> 100 µM
same,TGI,[21],> 100 µM
same,TGI,[22],> 100 µM
same,TGI,[23],> 100 µM
same,TGI,[24],> 100 µM
same,TGI,[25],> 100 µM
same,TGI,[26],> 100 µM
same,TGI,[27],> 100 µM
same,TGI,[28],> 100 µM
same,TGI,[29],> 100 µM
same,TGI,[30],> 100 µM
same,TGI,[31],> 100 µM
same,TGI,[32],49.3 µM
same,TGI,[33],> 100 µM
same,TGI,[34],> 100 µM
same,TGI,[35],> 100 µM
same,TGI,[36],> 100 µM
same,TGI,[37],> 100 µM
same,TGI,[38],> 100 µM
same,TGI,[39],> 100 µM
same,TGI,[40],> 100 µM
same,TGI,[41],> 100 µM
same,TGI,[42],> 100 µM
same,TGI,[43],> 100 µM
same,TGI,[44],> 100 µM
same,TGI,[45],> 100 µM
same,TGI,[46],> 100 µM
same,TGI,[47],> 100 µM
same,TGI,[48],> 100 µM
same,TGI,[49],> 100 µM
same,TGI,[50],> 100 µM
same,TGI,[51],> 100 µM
same,TGI,[52],> 100 µM
same,TGI,[53],> 100 µM
same,TGI,[54],> 100 µM
same,TGI,[55],> 100 µM
